Assay results as given in paper PMC3896271 (Beilstein Journal of Organic Chemistry, 2013).
Several values for one entry are separate records, joined by “and”; a condition that tells them apart may be missing. Equal entries are not always repeated.

Experiments:
κ-OR (CHO-hκ-OR) = system: T1, κ-OR (CHO-hκ-OR); assay: Antagonism of dynorphin A (10 nM) at κ-OR in the [35S]GTPγS assay; type: biochemical, human; settings: for [35S]GTPγS binding (% increase over basal), Mean / [35S]GTPγS binding (% increase over basal), single experiments: antagonist 3 μM; for [35S]GTPγS binding (% increase over basal), Mean: without antagonist mean 213; for [35S]GTPγS binding (% increase over basal), single experiments: without antagonist 130 and 296
T1 construct: expressed in transfected cells; host or cells: CHO cells, stably transfected; membranes

κ-OR = system: κ-OR; design: method as in doi:10.1007/978-1-59745-197-0_6; settings: cited from earlier work
human κ-OR [1] = molecular target: T2, human κ-OR (Homo sapiens, UniProt P41145); assay: Competitive inhibition of [3H]diprenorphine binding to CHO-κ-OR membranes; settings: for Ki: displacement of [3H]diprenorphine from CHO cell membranes expressing human κ-OR, n = 3, in duplicate, read-out: Ki ± SEM
T2 construct: expressed in transfected cells; host or cells: CHO cells, stably transfected; membranes

rat μ opioid receptor = molecular target: T3, rat μ opioid receptor (Rattus norvegicus, UniProt P33535); assay: biochemical; type: binding
T3 construct: expressed in transfected cells; host or cells: CHO cells, stably transfected; membranes

mouse δ opioid receptor = molecular target: T4, mouse δ opioid receptor (Mus musculus, UniProt P32300); assay: biochemical; type: binding
T4 construct: expressed in transfected cells; host or cells: CHO cells, stably transfected; membranes

human κ-OR [2] = molecular target: T2, human κ-OR; assay: biochemical

Compound	[35S]GTPγS binding (% increase over basal), Mean (κ-OR (CHO-hκ-OR)) [% increase over basal]	antagonism of dynorphin A (in words) (κ-OR (CHO-hκ-OR); primary screen at 3 μM)	Ke (κ-OR) [pM]	Ki (human κ-OR [1]) [µM]	affinity for µ-OR (in words) (rat μ opioid receptor)	affinity for δ-OR (in words) (mouse δ opioid receptor)	[35S]GTPγS binding (% increase over basal), single experiments (κ-OR (CHO-hκ-OR))	inhibition at 3 µM (human κ-OR [1]; 3 µM, κ-OR, read-out: inhibition (displacement) of [3H]diprenorphine binding, initial screening) [%]	EC50 (human κ-OR [2]) [µM]	Emax (human κ-OR [2]) [%]	Ki (rat μ opioid receptor) [µM]	Ki (mouse δ opioid receptor) [µM]
CC(C)[C@@H](CN1CC[C@@](C)(c2cccc(O)c2)[C@@H](C)C1)NC(=O)[C@H]1Cc2ccc(O)cc2CN1 [JDTic, reference compound]	0	abolished response to dynorphin A	< 40	–	–	–	–	–	–	–	–	–
COC(=O)C1CC(OC(C)=O)C(=O)C2C1(C)CCC1C(=O)OC(c3ccoc3CN(C)C)CC12C (stereo not drawn) [compound 2]	251	–	–	> 1	no affinity	no affinity	182 % increase over basal and 319 % increase over basal	–	–	–	–	–
COC(=O)C1CC(OC(C)=O)C(=O)C2C1(C)CCC1C(=O)OC(c3coc(CN(C)C)c3)CC12C (stereo not drawn) [compound 3]	208	–	–	> 1	no affinity	no affinity	146 % increase over basal and 270 % increase over basal	–	–	–	–	–
COC(=O)C1CC(OC(C)=O)C(=O)C2C1(C)CCC1C(=O)OC(c3ccoc3CO)CC12C (stereo not drawn) [compound 4]	332	–	–	0.11 ± 0.01	–	–	249 % increase over basal and 415 % increase over basal	≥ 50	0.345 ± 0.047	103	–	–
COC(=O)C1CC(OC(C)=O)C(=O)C2C1(C)CCC1C(=O)OC(c3cc(CO)oc3CO)CC12C (stereo not drawn) [compound 5]	226	–	–	> 1	no affinity	no affinity	175 % increase over basal and 278 % increase over basal	–	–	–	–	–
COC(=O)C1CC(OCOCCO)C(=O)C2C1(C)CCC1C(=O)OC(c3ccoc3)CC12C (stereo not drawn) [compound 6]	–	–	–	0.0127 ± 0.0013	–	–	–	–	–	–	> 1	> 1
